Laboratory results published in patent EP1561465A2, “Methods of use of fluoroquinolone compounds against bacteria” (LG Life Sciences, Ltd., priority 1999, dated 2001).
Converted amounts (≈) assume the structure as drawn. Read-outs that look alike come from different tables or passages of the source.

Legend:
Assay type in all cases: cell-based
Staphylococcus aureus = experiment: microbe, parasite or virus in culture
E. coli = experiment: microbe, parasite or virus in culture; details: Escherichia coli
Enterococcus faecalis = experiment: MIC by NCCLS broth microdilution, 1100 Japanese clinical isolates 1997-1998; details: for MIC50 / MIC90: Enterococcus faecalis; for MIC90: read-out: MIC90
Morganella morganii = experiment: as above
Serratia marcescens = experiment: as above; details: Serratia marcescens (n=30)
[1] = test system: Streptococcus pneumoniae and Haemophilus influenzae; experiment: MIC by broth microdilution (NCCLS), all isolates pooled
Enterobacter spp. = experiment: MIC by agar dilution (NCCLS), 322 nosocomial Gram negative isolates, Athens 1998; details: Enterobacter, n = 57 isolates
Streptococcus pneumoniae = experiment: MIC by E-test (broth microdilution for gemifloxacin), 107 pneumococcal carrier isolates, Athens 1998; details: E-test; for MIC Range: in µg/mL (unit assumed); for MIC50 / MIC90: Streptococcus pneumoniae; for MIC50: read-out: MIC50; for MIC90: read-out: MIC90
Method: Susceptibility testing was performed by agar dilution or epsilometer method (E-test), as recommended by the NCCLS. […] The susceptibility profiles of the strains were assessed using the Epsilometer method (E-test). The isolates were subdivided into two groups according to their penicillin susceptibility patterns (penicillin-susceptible and penicillin-intermediate.

Yersinia enterocolitica = experiment: MIC by agar dilution (NCCLS M7-A4), 288 enteropathogenic isolates, gemifloxacin and 15 other antimicrobials; details: Yersinia enterocolitica N= 22
[2] = Enterococcus faecalis ciprofloxacin resistant (n=15)
[3] = Enterococcus faecalis ciprofloxacin susceptible (n=24)
[4] = Penicillin-intermediate S. pneumoniae (n = 24)
[5] = Penicillin-susceptible S. pneumoniae (n = 107)

Which results are given for `C[C@@H]1CN(c2c(F)c(N)c3c(=O)c(C(=O)O)cn(C4CC4)c3c2F)C[C@H](C)N1` [Sparfloxacin, sparfloxacin]?
MIC Range (Staphylococcus aureus; Methicillin-resistant (38)): 0.063 to 64 µg/mL; MIC Range (Staphylococcus aureus; Methicillin-susceptible (9)): 0.063 to 0.5 µg/mL; MIC50 (Staphylococcus aureus; Staphylococcus aureus, Methicillin-resistant (38)): 2 µg/mL (≈ 5.1 µM); MIC90 (Staphylococcus aureus; Staphylococcus aureus, Methicillin-resistant (38), read-out: MIC90): 64 µg/mL (≈ 163 µM); MIC50 (Staphylococcus aureus; Staphylococcus aureus, Methicillin-susceptible (9)): 0.125 µg/mL (≈ 0.319 µM); MIC (Staphylococcus aureus; Staphylococcus aureus, S. aureus KU2240, mutant type Wild (wild strain)): 0.25 µg/mL (≈ 0.637 µM); MIC (Staphylococcus aureus; Staphylococcus aureus, S. aureus KU2241, mutant type NorA (efflux-mediated quinolone resistant)): 0.25 µg/mL (≈ 0.637 µM); MIC (Staphylococcus aureus; Staphylococcus aureus, S. aureus KU2242, mutant type T (DNA topoisomerase IV)): 0.25 µg/mL (≈ 0.637 µM); MIC (Staphylococcus aureus; Staphylococcus aureus, S. aureus KU2243, mutant type G+T (DNA gyrase and topoisomerase IV)): 64 µg/mL (≈ 163 µM); MIC (Staphylococcus aureus; Staphylococcus aureus, S. aureus KU2244, mutant type G (DNA gyrase)): 0.25 µg/mL (≈ 0.637 µM); MIC (Staphylococcus aureus; Staphylococcus aureus, S. aureus KU2245, mutant type G+T (DNA gyrase and topoisomerase IV)): 64 µg/mL (≈ 163 µM); MIC (Staphylococcus aureus; Staphylococcus aureus, S. aureus KU2246, mutant type T (DNA topoisomerase IV)): 0.25 µg/mL (≈ 0.637 µM); MIC50 (E. coli; E. coli (13 strains), quinolone-resistant, read-out: MIC50): 0.125 µg/mL (≈ 0.319 µM); MIC90 (E. coli; E. coli (13 strains), quinolone-resistant, read-out: MIC90): 0.5 µg/mL (≈ 1.27 µM); MIC (E. coli; E. coli KU1029, mutant type SP (spontaneous mutant in the DNA gyrase)): 0.031 µg/mL (≈ 0.079 µM); MIC (E. coli; E. coli KU1030, mutant type SP): 0.063 µg/mL (≈ 0.161 µM); MIC (E. coli; E. coli KU1031, mutant type SP): 0.031 µg/mL (≈ 0.079 µM); MIC (E. coli; E. coli KU1032, mutant type SP): 0.125 µg/mL (≈ 0.319 µM); MIC (E. coli; E. coli KU1033, mutant type SP): 0.031 µg/mL (≈ 0.079 µM); MIC (E. coli; E. coli KU1034, mutant type GA (DNA gyrase A)): 0.5 µg/mL (≈ 1.27 µM); MIC (E. coli; E. coli KU1035, mutant type GA (DNA gyrase A)): 0.5 µg/mL (≈ 1.27 µM); MIC (E. coli; E. coli KU1036, mutant type GB (DNA gyrase B)): 0.063 µg/mL (≈ 0.161 µM); MIC (E. coli; E. coli KU1038, mutant type SP): 0.031 µg/mL (≈ 0.079 µM); MIC (E. coli; E. coli KU1039, mutant type SP): 0.25 µg/mL (≈ 0.637 µM); MIC (E. coli; E. coli KU1040, mutant type SP): ≤ 0.008 µg/mL; MIC (E. coli; E. coli KU1041, mutant type SP): 0.25 µg/mL (≈ 0.637 µM); MIC (E. coli; E. coli KU1042, mutant type SP): 0.063 µg/mL (≈ 0.161 µM); MIC Range (Enterococcus faecalis; [2]): 0.5 to 64 µg/mL; MIC Range (Enterococcus faecalis; [3]): 0.5 to 1 µg/mL; MIC50 (Enterococcus faecalis; [2]): 16 µg/mL (≈ 40.8 µM); MIC90 (Enterococcus faecalis; [2]): 64 µg/mL (≈ 163 µM); MIC50 (Enterococcus faecalis; [3]): 0.5 µg/mL (≈ 1.27 µM); MIC90 (Enterococcus faecalis; [3]): 1 µg/mL (≈ 2.55 µM); MIC50 (Morganella morganii; Morganella morganii): 0.125 µg/mL (≈ 0.319 µM); MIC Range (Morganella morganii; Morganella morganii (n=40)): 0.063 to 16 µg/mL; MIC90 (Morganella morganii; Morganella morganii (n=40), read-out: MIC90): 0.5 µg/mL (≈ 1.27 µM); MIC90 (Serratia marcescens): 2 µg/mL (≈ 5.1 µM); MIC Range (Serratia marcescens): 0.063 to 64 µg/mL; MIC50 (Serratia marcescens; read-out: MIC50): 0.25 µg/mL (≈ 0.637 µM)

For `Cc1c(F)c(N2CCNC(C)C2)cc2c1c(=O)c(C(=O)O)cn2C1CC1` (stereo not shown) [Grepafloxacin, grepafloxacin], which MIC90 ([1]; all (380) isolates tested (235 S. pneumoniae, 145 H. influenzae)) is on record?
The MIC90 was 0.12 µg/mL (≈ 0.334 µM).

And the MIC90 ([1]; all isolates tested (602))?
Its MIC90 is 0.12 µg/mL (≈ 0.334 µM).

And the MIC50 (Enterobacter spp.; read-out: MIC50)?
Its MIC50 is 0.06 µg/mL (≈ 0.167 µM).

And the MIC90 (Enterobacter spp.; read-out: MIC90)?
The MIC90 was > 64 µg/mL.

And the MIC Range (Streptococcus pneumoniae; [4])?
The MIC Range was 0.047-0.5.

What about the MIC Range (Streptococcus pneumoniae; [5]) of the same molecule?
Its MIC Range is 0.047-1.

What about the MIC50 (Streptococcus pneumoniae; [4]) of the same molecule?
Its MIC50 is 0.19 µg/mL (≈ 0.529 µM).

And the MIC90 (Streptococcus pneumoniae; [4])?
The MIC90 was 0.38 µg/mL (≈ 1.06 µM).

What about the MIC50 (Streptococcus pneumoniae; [5]) of the same molecule?
The MIC50 was 0.19 µg/mL (≈ 0.529 µM).

And the MIC90 (Streptococcus pneumoniae; [5])?
Its MIC90 is 0.38 µg/mL (≈ 1.06 µM).

And the MIC (Yersinia enterocolitica; 24 h, read-out: MIC (mg/L) Range)?
Its MIC is 0.015 to 0.25 mg/L (≈ 0.0417 to 0.696 µM).

And the MIC (Yersinia enterocolitica; read-out: MIC (mg/L) 50%)?
Its MIC is 0.03 mg/L (≈ 0.0835 µM).

What about the MIC (Yersinia enterocolitica; read-out: MIC (mg/L) 90%) of the same molecule?
Its MIC is 0.03 mg/L (≈ 0.0835 µM).
